Assay results from US9884868B2, “TGF-beta inhibitors” (Rigel Pharmaceuticals, Inc., priority 2015, dated 2018).

Target: HIS-TGF-βR1 T204D (Homo sapiens (Human), UniProt P36897, T204D)
Experiment: HTRF probe displacement assay with HIS-TGF-βR1 T204D
Conditions: read-out: TGFbr1 IC50; HTRF probe displacement, 1 nM HIS-TGF-βR1 T204D, 1 hour at room temperature

Chain of HIS-TGF-βR1 T204D (P36897 34-503 T204D): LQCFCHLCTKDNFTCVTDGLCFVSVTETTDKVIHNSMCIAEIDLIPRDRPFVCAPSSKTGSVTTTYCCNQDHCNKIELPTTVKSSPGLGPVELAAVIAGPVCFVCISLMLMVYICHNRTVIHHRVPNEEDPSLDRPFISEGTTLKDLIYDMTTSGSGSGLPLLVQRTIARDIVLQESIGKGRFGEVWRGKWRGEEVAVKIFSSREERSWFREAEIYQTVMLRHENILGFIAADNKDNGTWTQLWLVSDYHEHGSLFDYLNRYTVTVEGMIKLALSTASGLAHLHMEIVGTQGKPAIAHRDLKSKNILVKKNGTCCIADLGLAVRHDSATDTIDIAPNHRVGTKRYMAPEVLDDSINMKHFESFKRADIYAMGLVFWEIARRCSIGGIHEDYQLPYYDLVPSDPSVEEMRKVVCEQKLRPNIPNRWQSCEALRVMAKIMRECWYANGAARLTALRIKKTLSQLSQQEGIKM

SMILES | IC50
NC(=O)c1cnc2ccc(-c3c(-c4ccc(F)c(Cl)c4)ncn3C3CC(F)C3)nn12 (stereo not drawn) [141′, 6-(4-(3-chloro-4-fluorophenyl)-1-(3-fluorocyclobutyl)-1H-imidazol-5-yl)imidazo[1,2-b]pyridazine-3-carboxamide] | 0.8 nM
NC(=O)c1cnc2ccc(-c3c(-c4ccc(F)c(Cl)c4)ncn3CCCO)nn12 [142′, 6-(4-(3-chloro-4-fluorophenyl)-1-(3-hydroxypropyl)-1H-imidazol-5-yl)imidazo[1,2-b]pyridazine-3-carboxamide] | 1.6 nM
NC(=O)c1cnc2ccc(-c3c(-c4ccc(F)c(Cl)c4)ncn3C[C@@H]3CCCO3)nn12 [145′, (S)-6-(4-(3-chloro-4-fluorophenyl)-1-((tetrahydrofuran-2-yl)methyl)-1H-imidazol-5-yl)imidazo[1,2-b]pyridazine-3-carboxamide] | 2.2 nM
NC(=O)c1cnc2ccc(-c3c(-c4ccc(F)c(Cl)c4)ncn3C3CCOC3)nn12 (stereo not drawn) [146′, 6-(4-(3-chloro-4-fluorophenyl)-1-(tetrahydrofuran-3-yl)-1H-imidazol-5-yl)imidazo[1,2-b]pyridazine-3-carboxamide] | 1.7 nM
CC(C)CCn1cnc(-c2ccc(F)c(Cl)c2)c1-c1ccc2ncc(C(N)=O)n2n1 [148′, 6-(4-(3-chloro-4-fluorophenyl)-1-isopentyl-1H-imidazol-5-yl)imidazo[1,2-b]pyridazine-3-carboxamide] | 1.1 nM
NC(=O)c1cnc2ccc(-c3c(-c4ccc(F)c(Cl)c4)ncn3CCCCl)nn12 [149′, 6-(4-(3-chloro-4-fluorophenyl)-1-(3-chloropropyl)-1H-imidazol-5-yl)imidazo[1,2-b]pyridazine-3-carboxamide] | 1.7 nM
NC(=O)c1cnc2ccc(-c3c(-c4ccc(F)c(Cl)c4)ncn3CCC3CCC3)nn12 [150′, 6-(4-(3-chloro-4-fluorophenyl)-1-(2-cyclobutylethyl)-1H-imidazol-5-yl)imidazo[1,2-b]pyridazine-3-carboxamide] | 1.2 nM
CC(F)(F)Cn1cnc(-c2ccc(F)c(Cl)c2)c1-c1ccc2ncc(C(N)=O)n2n1 [151′, 6-(4-(3-chloro-4-fluorophenyl)-1-(2,2-difluoropropyl)-1H-imidazol-5-yl)imidazo[1,2-b]pyridazine-3-carboxamide] | 0.6 nM
CC(CO)n1cnc(-c2ccc(F)cc2)c1-c1ccc2ncc(C(N)=O)n2c1 (stereo not drawn) [152′, 6-(4-(4-fluorophenyl)-1-(1-hydroxypropan-2-yl)-1H-imidazol-5-yl)imidazo[1,2-a]pyridine-3-carboxamide] | 1.1 nM
CC(CCO)n1cnc(-c2ccc(F)cc2)c1-c1ccc2ncc(C(N)=O)n2c1 (stereo not drawn) [154′, 6-(4-(4-fluorophenyl)-1-(4-hydroxybutan-2-yl)-1H-imidazol-5-yl)imidazo[1,2-a]pyridine-3-carboxamide] | 2.3 nM
C[C@@H](O)Cn1cnc(-c2ccc(F)cc2)c1-c1ccc2ncc(C(N)=O)n2c1 [155′, (R)-6-(4-(4-fluorophenyl)-1-(2-hydroxypropyl)-1H-imidazol-5-yl)imidazo[1,2-a]pyridine-3-carboxamide] | 5.5 nM
CC(O)CCn1cnc(-c2ccc(F)cc2)c1-c1ccc2ncc(C(N)=O)n2c1 (stereo not drawn) [156′, 6-(4-(4-fluorophenyl)-1-(3-hydroxybutyl)-1H-imidazol-5-yl)imidazo[1,2-a]pyridine-3-carboxamide] | 4.3 nM
NC(=O)c1cnc2ccc(-c3c(-c4ccc(F)cc4)ncn3CC3CCC3)cn12 [157′, 6-(1-(cyclobutylmethyl)-4-(4-fluorophenyl)-1H-imidazol-5-yl)imidazo[1,2-a]pyridine-3-carboxamide] | 0.8 nM
C[C@H](O)Cn1cnc(-c2ccc(F)cc2)c1-c1ccc2ncc(C(N)=O)n2c1 [158′, (S)-6-(4-(4-fluorophenyl)-1-(2-hydroxypropyl)-1H-imidazol-5-yl)imidazo[1,2-a]pyridine-3-carboxamide] | 2.7 nM
NC(=O)c1cnc2ccc(-c3c(-c4ccc(F)cc4)ncn3C3CCCC3)cn12 [159′, 6-(1-cyclopentyl-4-(4-fluorophenyl)-1H-imidazol-5-yl)imidazo[1,2-a]pyridine-3-carboxamide] | 0.8 nM
